From US9029406B2 (Seattle Genetics, Inc, priority 2011, dated 2015)
Where a SMILES comes first, the peptide text is derived from it. [ ]: non-standard residue; d: D form. The star is where a group is joined. Dolaproine = CO[C@@H]([C@@H]1CCCN1)[C@@H](C)C(=O)O; Dil = CC[C@H](C)[C@H](NC)[C@@H](CC(=O)O)OC; X1 = C[C@@H](N*)[C@@H](O)c1ccccc1; NMeV = CN[C@H](C(=O)O)C(C)C

Assays:
[1] = test system: human colon carcinoma cell line HT29 wt; experiment: Antiproliferative effect on the HT29 wt cell line (MTT assay); format: cell-based; settings: incubation 48 h to 96 h
Method: B-1. Determination of the Antiproliferative Effect on the HT29 Wt Cell Line:
A defined cell count of the human colon carcinoma cell line HT29 wt (wild type) was sown in a 96-well microtiter plate in whole medium (10% FCS-RPMI) (2500 cells/well) and incubated overnight at 37° C./5% CO2. After 18 hours, the inoculation medium was replaced by fresh medium with 10% FCS. The treatment started with addition of the respective test substance. Of the substances to be investigated, dose-effect curves were determined in a concentration range of 10^−5 M to 10^−14 M (1:10 dilution series). Incubation times of 48 h to 96 h were selected. Proliferation was detected with the help of the MTT assay (ATCC, Manassas, Va., USA, catalog no. 30-1010K). After the end of the selected incubation time, the MTT reagent was incubated with the cells for 4 h before lysis of the cells was performed overnight by adding the detergent. The dye that was formed was detected at 570 nm. The proliferation with otherwise identically treated cells but not with the test substance was defined as the 100% value. The data obtained from this test represents triple determinations, and at least two independent experiments were performed.

[2] = Cell permeability, flux assay using Caco-2 cells; format: in vitro ADME; settings: human; Caco-2 flux assay, basal to apical, 2 h incubation
Method: (§1) B-4. Determination of Cell Permeability:
(§2) The cell permeability of a substance can be analyzed by in vitro testing in a flux assay using Caco-2 cells [M. D. Troutman and D. R. Thakker, Pharm. Res. 20 (8), 1210-1224 (2003)]. To do so, the cells were cultured for 15-16 days on 24-hole filter plates. To determine the permeation, the respective test substance was applied to the cells either apically (A) or basally (B) in a HEPES buffer and incubated for 2 h. After 0 h and after 2 h, samples were taken from the cis- and trans-compartments. The samples were separated by HPLC (Agilent 1200, Böblingen, Germany) using reverse phase columns. The HPLC system was coupled via a turbo ion spray interface to an API 4000 triple quadrupole mass spectrometer (Applied Biosystems Applera, Darmstadt, Germany). The permeability was evaluated on the basis of a Papp value, which was calculated using the equation published by Schwab et al. [D. Schwab et al., J. Med. Chem. 46, 1717-1725 (2003)]. A substance was classified as being actively transported if the ratio of Papp (B−A) to Papp (A−B) was >2 or <0.5.
(§3) The permeability of B to A [Papp (B−A)] is of crucial importance for toxophores that are released intracellularly. The lower this permeability, the longer is the dwell time of the substance in the cell after intracellular release and thus also the time available for an interaction with the biochemical target (here: tubulin).

Caco-2 cells = experiment: Cell permeability, flux assay using Caco-2 cells; format: in vitro ADME; settings: Caco-2 flux assay, basal to apical, 2 h incubation
Method: as §1, §2, §3

[3] = Homo sapiens, HT-29, HT29 wt cells

## CC[C@H](C)[C@@H]([C@@H](CC(=O)N1CCC[C@H]1[C@H](OC)[C@@H](C)C(=O)N[C@H](/C=C\Cc1ccccc1)Cc1ccccc1)OC)N(C)C(=O)[C@@H](NC(=O)[C@H](C(C)C)N(C)CCCC(=O)O)C(C)C [Example 1, N-(3-Carboxypropyl)-N-methyl-L-valyl-N-[(3R,4S,5S)-1-{(2S)-2-[(1R,2R)-3-{[(2S,3Z)-1,5-diphenylpent-3-en-2-yl]amino}-1-methoxy-2-methyl-3-oxopropyl]pyrrolidin-1-yl}-3-methoxy-5-methyl-1-oxoheptan-4-yl]-N-methyl-L-valinamide]
[1]; [3]
  IC50: 15 nM

## CC[C@H](C)[C@@H]([C@@H](CC(=O)N1CCC[C@H]1[C@H](OC)[C@@H](C)C(=O)N[C@H](/C=C\c1ccccc1)Cc1ccccc1)OC)N(C)C(=O)[C@@H](NC(=O)[C@H](C(C)C)N(C)CCCC(=O)O)C(C)C [Example 2, N-(3-Carboxypropyl)-N-methyl-L-valyl-N-[(3R,4S,5S)-1-{(2S)-2-[(1R,2R)-3-{[(2S,3Z)-1,4-diphenylbut-3-en-2-yl]amino}-1-methoxy-2-methyl-3-oxopropyl]pyrrolidin-1-yl}-3-methoxy-5-methyl-1-oxoheptan-4-yl]-N-methyl-L-valinamide]
[1]; [3]
  IC50: 3.3 nM
[2]
  Papp B→A at 2 h: 15.7 ×10⁻⁶ cm/s

## CC[C@H](C)[C@@H]([C@@H](CC(=O)N1CCC[C@H]1[C@H](OC)[C@@H](C)C(=O)N[C@H](/C=C/c1ccccc1)Cc1ccccc1)OC)N(C)C(=O)[C@@H](NC(=O)[C@H](C(C)C)N(C)CCCC(=O)O)C(C)C [Example 3, N-(3-Carboxypropyl)-N-methyl-L-valyl-N-[(3R,4S,5S)-1-{(2S)-2-[(1R,2R)-3-{[(2S,3E)-1,4-diphenylbut-3-en-2-yl]amino}-1-methoxy-2-methyl-3-oxopropyl]pyrrolidin-1-yl}-3-methoxy-5-methyl-1-oxoheptan-4-yl]-N-methyl-L-valinamide]
[1]; [3]
  IC50: 0.3 nM
[2]
  Papp B→A at 2 h: 17.9 ×10⁻⁶ cm/s

## CC[C@H](C)[C@@H]([C@@H](CC(=O)N1CCC[C@H]1[C@H](OC)[C@@H](C)C(=O)N[C@@H](Cc1ccccc1)CS(=O)(=O)Cc1ccccc1)OC)N(C)C(=O)[C@@H](NC(=O)[C@H](C(C)C)N(C)CCCC(=O)O)C(C)C [Example 4]
[1]; [3]
  IC50: 1.1 nM
[2]
  Papp B→A at 2 h: 1.9 ×10⁻⁶ cm/s

## CC[C@H](C)[C@@H]([C@@H](CC(=O)N1CCC[C@H]1[C@H](OC)[C@@H](C)C(=O)N[C@@H](Cc1ccccc1)c1nnc(-c2ccccc2)o1)OC)N(C)C(=O)[C@@H](NC(=O)[C@H](C(C)C)N(C)CCCC(=O)O)C(C)C [Example 5, N-(3-Carboxypropyl)-N-methyl-L-valyl-N-[(3R,4S,5S)-3-methoxy-1-{(2S)-2-[(1R,2R)-1-methoxy-2-methyl-3-oxo-3-{[(1S)-2-phenyl-1-(5-phenyl-1,3,4-oxadiazol-2-yl)ethyl]amino}propyl]pyrrolidin-1-yl}-5-methyl-1-oxoheptan-4-yl]-N-methyl-L-valinamide]
[1]; [3]
  IC50: 0.1 nM
[2]
  Papp B→A at 2 h: 2.9 ×10⁻⁶ cm/s

## CC[C@H](C)[C@@H]([C@@H](CC(=O)N1CCC[C@H]1[C@H](OC)[C@@H](C)C(=O)N[C@H](Cc1ccccc1)c1nnc(-c2ccccc2)o1)OC)N(C)C(=O)[C@@H](NC(=O)[C@H](C(C)C)N(C)CCCC(=O)O)C(C)C [Example 6, N-(3-Carboxypropyl)-N-methyl-L-valyl-N-[(3R,4S,5S)-3-methoxy-1-{(2S)-2-[(1R,2R)-1-methoxy-2-methyl-3-oxo-3-{[(1R)-2-phenyl-1-(5-phenyl-1,3,4-oxadiazol-2-yl)ethyl]amino}propyl]pyrrolidin-1-yl}-5-methyl-1-oxoheptan-4-yl]-N-methyl-L-valinamide]
[1]; [3]
  IC50: 0.1 nM
[2]
  Papp B→A at 2 h: 4.5 ×10⁻⁶ cm/s

## CC[C@H](C)[C@@H]([C@@H](CC(=O)N1CCC[C@H]1[C@H](OC)[C@@H](C)C(=O)NCCc1c[nH]c2ccccc12)OC)N(C)C(=O)[C@@H](NC(=O)[C@H](C(C)C)N(C)CCCC(=O)O)C(C)C [Example 7, N-(3-Carboxypropyl)-N-methyl-L-valyl-N-[(3R,4S,5S)-1-{(2S)-2-[(1R,2R)-3-{[2-(1H-indol-3-yl)ethyl]amino}-1-methoxy-2-methyl-3-oxopropyl]pyrrolidin-1-yl}-3-methoxy-5-methyl-1-oxoheptan-4-yl]-N-methyl-L-valinamide]
[2]
  Papp B→A at 2 h: 1.1 ×10⁻⁶ cm/s

## CC[C@H](C)[C@@H]([C@@H](CC(=O)N1CCC[C@H]1[C@H](OC)[C@@H](C)C(=O)NCCc1ccccc1)OC)N(C)C(=O)[C@@H](NC(=O)[C@H](C(C)C)N(C)CCCC(=O)O)C(C)C [Example 8, N-(3-Carboxypropyl)-N-methyl-L-valyl-N-[(3R,4S,5S)-3-methoxy-1-{(2S)-2-[(1R,2R)-1-methoxy-2-methyl-3-oxo-3-[(2-phenylethyl)amino]propyl}pyrrolidin-1-yl}-5-methyl-1-oxoheptan-4-yl]-N-methyl-L-valinamide]
[1]; [3]
  IC50: 0.5 nM
[2]
  Papp B→A at 2 h: 1 ×10⁻⁶ cm/s

## CC[C@H](C)[C@@H]([C@@H](CC(=O)N1CCC[C@H]1[C@H](OC)[C@@H](C)C(=O)N[C@H](C)[C@@H](O)c1ccccc1)OC)N(C)C(=O)[C@@H](NC(=O)[C@H](C(C)C)N(C)CCCC(=O)O)C(C)C [Example 9, N-(3-Carboxypropyl)-N-methyl-L-valyl-N-[(3R,4S,5S)-1-{(2S)-2-[(1R,2R)-3-{[(1S,2R)-1-hydroxy-1-phenylpropan-2-yl]amino}-1-methoxy-2-methyl-3-oxopropyl]pyrrolidin-1-yl}-3-methoxy-5-methyl-1-oxoheptan-4-yl]-N-methyl-L-valinamide]
[1]; [3]
  IC50: 6 nM
[2]
  Papp B→A at 2 h: 0.45 ×10⁻⁶ cm/s

## CC[C@H](C)[C@@H]([C@@H](CC(=O)N1CCC[C@H]1[C@H](OC)[C@@H](C)C(=O)N[C@H](/C=C/c1ccc(C(=O)O)cc1)Cc1ccccc1)OC)N(C)C(=O)[C@@H](NC(=O)[C@H](C(C)C)N(C)CCCC(=O)O)C(C)C [Example 11]
[1]; [3]
  IC50: 4.5 nM
[2]
  Papp B→A at 2 h: 0.2 ×10⁻⁶ cm/s

## CC[C@H](C)[C@@H]([C@@H](CC(=O)N1CCC[C@H]1[C@H](OC)[C@@H](C)C(=O)N[C@H](C)[C@@H](O)c1ccccc1)OC)N(C)C(=O)[C@@H](NC(=O)[C@@H](NC)C(C)C)C(C)C [MMAE, monomethylauristatin E, reference compound] (H-[NMeV]V[Dil][Dolaproine]-X1)
Caco-2 cells
  Papp (B-A): 8.9 ×10⁻⁶ cm/s

## CC[C@H](C)[C@@H]([C@@H](CC(=O)N1CCC[C@H]1[C@H](OC)[C@@H](C)C(=O)N[C@@H](Cc1ccccc1)C(=O)O)OC)N(C)C(=O)[C@@H](NC(=O)[C@@H](NC)C(C)C)C(C)C [MMAF, monomethylauristatin F, reference compound] (H-[NMeV]V[Dil][Dolaproine]F-OH)
[1]; HT29 wt cells
  IC50: 10 nM
Caco-2 cells
  Papp (B-A): 7.3 ×10⁻⁶ cm/s
